From ChEMBL document CHEMBL1201862, “PubChem BioAssay data set” (2004)
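Growth conditions: 96-well plates. Treatment: test compound, 48 hours, 5 concentrations. Analysis: linear interpolation between bracketing concentrations; unreached endpoints set to highest concentration. The concentration for 50% growth inhibition is given as GI50.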 Calls of active or inactive are those of the source. Rule as the data show it: active = GI50 up to about 1.1 µM and inactive = higher.

Assays:
Assay in all cases: NCI-60 cell line screen, 48 h
786-0 = test system: 786-0
A549 = test system: A549
ACHN = test system: ACHN
CAKI-1 = test system: CAKI-1
CCRF-CEM = test system: CCRF-CEM
COLO 205 = test system: COLO 205
DLD-1 = test system: DLD-1
DMS-114 = test system: DMS-114
DMS-273 = test system: DMS-273
EKVX = test system: EKVX
HCC 2998 = test system: HCC 2998
HCT-116 = test system: HCT-116
HCT-15 = test system: HCT-15
HL-60 = test system: HL-60
HOP-62 = test system: HOP-62
HOP-92 = test system: HOP-92
HT-29 = test system: HT-29
IGROV-1 = test system: IGROV-1
K562 = test system: K562
KM-20L2 = test system: KM-20L2
KM12 = test system: KM12
LOX IMVI = test system: LOX IMVI
LXFL 529 = test system: LXFL 529
M14 = test system: M14
M19-MEL = test system: M19-MEL
MOLT-4 = test system: MOLT-4
Malme-3M = test system: Malme-3M
NCI-H226 = test system: NCI-H226
NCI-H23 = test system: NCI-H23
NCI-H460 = test system: NCI-H460
NCI-H522 = test system: NCI-H522
OVCAR-3 = test system: OVCAR-3
OVCAR-5 = test system: OVCAR-5
OVCAR-8 = test system: OVCAR-8
RPMI-8226 = test system: RPMI-8226
RXF 393 = test system: RXF 393
SF-268 = test system: SF-268
SF-295 = test system: SF-295
SF-539 = test system: SF-539
SK-MEL-2 = test system: SK-MEL-2
SK-OV-3 = test system: SK-OV-3
SN12C = test system: SN12C
SNB-19 = test system: SNB-19
SNB-75 = test system: SNB-75
SR = test system: SR
SW-620 = test system: SW-620
TK-10 = test system: TK-10
U-251 = test system: U-251
UACC-257 = test system: UACC-257
UACC-62 = test system: UACC-62
UO-31 = test system: UO-31
A498 = test system: A498
BT-549 = test system: BT-549
DU-145 = test system: DU-145
Hs-578T = test system: Hs-578T
MCF7 = test system: MCF7
MDA-MB-231 = test system: MDA-MB-231
MDA-MB-435 = test system: MDA-MB-435
MDA-N = test system: MDA-N
NCI/ADR-RES = test system: NCI/ADR-RES
OVCAR-4 = test system: OVCAR-4
PC-3 = test system: PC-3
SK-MEL-28 = test system: SK-MEL-28
SK-MEL-5 = test system: SK-MEL-5
T47D = test system: T47D

Compound: O=C(CO[N+](=O)[O-])OC/C=C/c1ccccc1
- GI50 (786-0): > 100 µM (inactive)
- GI50 (A549): > 100 µM (inactive)
- GI50 (ACHN): > 100 µM (inactive)
- GI50 (CAKI-1): > 100 µM (inactive)
- GI50 (CCRF-CEM): > 100 µM (inactive)
- GI50 (COLO 205): > 100 µM (inactive)
- GI50 (DLD-1): > 100 µM (inactive)
- GI50 (DMS-114): > 100 µM (inactive)
- GI50 (DMS-273): > 100 µM (inactive)
- GI50 (EKVX): > 100 µM (inactive)
- GI50 (HCC 2998): > 100 µM (inactive)
- GI50 (HCT-116): > 100 µM (inactive)
- GI50 (HCT-15): > 100 µM
- GI50 (HL-60): 22.1 µM (inactive)
- GI50 (HOP-62): > 100 µM (inactive)
- GI50 (HOP-92): > 100 µM (inactive)
- GI50 (HT-29): > 100 µM (inactive)
- GI50 (IGROV-1): > 100 µM (inactive)
- GI50 (K562): > 100 µM (inactive)
- GI50 (KM-20L2): > 100 µM (inactive)
- GI50 (KM12): > 100 µM (inactive)
- GI50 (LOX IMVI): > 100 µM (inactive)
- GI50 (LXFL 529): > 100 µM (inactive)
- GI50 (M14): > 100 µM (inactive)
- GI50 (M19-MEL): > 100 µM (inactive)
- GI50 (MOLT-4): > 100 µM (inactive)
- GI50 (Malme-3M): > 100 µM (inactive)
- GI50 (NCI-H226): > 100 µM (inactive)
- GI50 (NCI-H23): > 100 µM (inactive)
- GI50 (NCI-H460): > 100 µM (inactive)
- GI50 (NCI-H522): > 100 µM (inactive)
- GI50 (OVCAR-3): > 100 µM (inactive)
- GI50 (OVCAR-5): > 100 µM (inactive)
- GI50 (OVCAR-8): > 100 µM (inactive)
- GI50 (RPMI-8226): > 100 µM (inactive)
- GI50 (RXF 393): > 100 µM (inactive)
- GI50 (SF-268): > 100 µM (inactive)
- GI50 (SF-295): > 100 µM (inactive)
- GI50 (SF-539): > 100 µM (inactive)
- GI50 (SK-MEL-2): > 100 µM (inactive)
- GI50 (SK-OV-3): > 100 µM (inactive)
- GI50 (SN12C): > 100 µM (inactive)
- GI50 (SNB-19): > 100 µM (inactive)
- GI50 (SNB-75): > 100 µM (inactive)
- GI50 (SR): > 100 µM (inactive)
- GI50 (SW-620): > 100 µM (inactive)
- GI50 (TK-10): > 100 µM (inactive)
- GI50 (U-251): > 100 µM (inactive)
- GI50 (UACC-257): > 100 µM (inactive)
- GI50 (UACC-62): > 10 µM (inactive)
- GI50 (UO-31): > 100 µM (inactive)

Compound: C=C(Cl)c1c(OC)cccc1OCc1ccccc1
- GI50 (786-0): > 100 µM (inactive)
- GI50 (A498): 62.4 µM (inactive)
- GI50 (A549): > 100 µM (inactive)
- GI50 (ACHN): 90.8 µM (inactive)
- GI50 (BT-549): > 100 µM (inactive)
- GI50 (CAKI-1): > 100 µM (inactive)
- GI50 (CCRF-CEM): 75 µM (inactive)
- GI50 (COLO 205): 98.2 µM (inactive)
- GI50 (DU-145): > 100 µM (inactive)
- GI50 (EKVX): 59.4 µM (inactive)
- GI50 (HCC 2998): 37.4 µM (inactive)
- GI50 (HCT-116): 56.8 µM (inactive)
- GI50 (HCT-15): 92.7 µM
- GI50 (HL-60): 29.2 µM (inactive)
- GI50 (HOP-62): > 100 µM (inactive)
- GI50 (HOP-92): 22.2 µM (inactive)
- GI50 (HT-29): 34.5 µM (inactive)
- GI50 (Hs-578T): > 100 µM (inactive)
- GI50 (IGROV-1): 57.5 µM (inactive)
- GI50 (K562): 48.2 µM (inactive)
- GI50 (KM12): 54.2 µM (inactive)
- GI50 (LOX IMVI): 69.7 µM (inactive)
- GI50 (M14): > 100 µM (inactive)
- GI50 (MCF7): 58.5 µM (inactive)
- GI50 (MDA-MB-231): 64.7 µM (inactive)
- GI50 (MDA-MB-435): 37 µM (inactive)
- GI50 (MDA-N): 42 µM (inactive)
- GI50 (MOLT-4): 64.7 µM (inactive)
- GI50 (Malme-3M): > 100 µM (inactive)
- GI50 (NCI-H226): 48.2 µM (inactive)
- GI50 (NCI-H23): 26.1 µM (inactive)
- GI50 (NCI-H460): > 100 µM (inactive)
- GI50 (NCI-H522): 44.6 µM (inactive)
- GI50 (NCI/ADR-RES): > 100 µM (inactive)
- GI50 (OVCAR-3): > 100 µM (inactive)
- GI50 (OVCAR-4): 98.9 µM (inactive)
- GI50 (OVCAR-5): > 100 µM (inactive)
- GI50 (OVCAR-8): > 100 µM (inactive)
- GI50 (PC-3): > 100 µM (inactive)
- GI50 (RPMI-8226): 43 µM (inactive)
- GI50 (RXF 393): 16.7 µM (inactive)
- GI50 (SF-268): > 100 µM (inactive)
- GI50 (SF-295): > 100 µM (inactive)
- GI50 (SF-539): > 100 µM (inactive)
- GI50 (SK-MEL-28): > 100 µM (inactive)
- GI50 (SK-MEL-2): > 100 µM (inactive)
- GI50 (SK-MEL-5): 34.4 µM (inactive)
- GI50 (SK-OV-3): > 100 µM (inactive)
- GI50 (SN12C): > 100 µM (inactive)
- GI50 (SNB-19): > 100 µM (inactive)
- GI50 (SNB-75): 23.5 µM (inactive)
- GI50 (SR): 26.8 µM (inactive)
- GI50 (SW-620): 71 µM (inactive)
- GI50 (T47D): 25.1 µM (inactive)
- GI50 (TK-10): > 100 µM (inactive)
- GI50 (U-251): > 100 µM (inactive)
- GI50 (UACC-257): 20 µM (inactive)
- GI50 (UACC-62): 30.4 µM (inactive)
- GI50 (UO-31): 55 µM (inactive)
